± gives the standard deviation of the averaged measurements.
Legend:
Assay in all cases: normalised growth rate inhibition (GR value) relative to DMSO control (GR (1 = untreated growth, 0 = cytostasis, <0 = cytotoxic)); higher = less growth inhibition
Conditions in all cases: 72 h
MDAMB231 = tested on: MDAMB231
Description: (§1)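 Breast cancer cell lines (BT-20, Hs 578T, MCF 10A, MCF7, MDA-MB-231, SK-BR-3) were plated in 384-well plates and treated 24 h later with drugs at six concentrations (0.04-10 µM). Viable cells were counted by Hoechst/dead-cell-stain imaging at 0 and 72 h. Counts were normalised to DMSO controls on the same plate to give the relative cell count and the growth-rate inhibition (GR) value; technical plate triplicates were averaged for each biological replicate.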

BT20 = tested on: BT20
Description: as §1

SKBR3 = tested on: SKBR3
Description: as §1

MCF7 = tested on: MCF7
Description: as §1

HS578T = tested on: HS578T
Description: as §1

MCF10A = tested on: MCF10A
Description: as §1

Structure (SMILES): Cc1ccc2nc(NCCN)c3ncc(C)n3c2c1
- normalised growth rate inhibition (MDAMB231; 0.04 µM): 0.9929 ± 0.0097
- normalised growth rate inhibition (MDAMB231; 0.12 µM): 0.936 ± 0.097
- normalised growth rate inhibition (MDAMB231; 0.37 µM): 0.885 ± 0.06
- normalised growth rate inhibition (MDAMB231; 1.11 µM): 0.652 ± 0.085
- normalised growth rate inhibition (MDAMB231; 3.33 µM): 0.265 ± 0.11
- normalised growth rate inhibition (MDAMB231; 10 µM): -0.253 ± 0.2
- normalised growth rate inhibition (BT20; 0.04 µM): 1.01 ± 0.027
- normalised growth rate inhibition (BT20; 0.12 µM): 0.968 ± 0.055
- normalised growth rate inhibition (BT20; 0.37 µM): 0.952 ± 0.087
- normalised growth rate inhibition (BT20; 1.11 µM): 0.847 ± 0.12
- normalised growth rate inhibition (BT20; 3.33 µM): 0.778 ± 0.082
- normalised growth rate inhibition (BT20; 10 µM): -0.00828 ± 0.2
- normalised growth rate inhibition (SKBR3; 0.04 µM): 1.05 ± 0.043
- normalised growth rate inhibition (SKBR3; 0.12 µM): 1.01 ± 0.088
- normalised growth rate inhibition (SKBR3; 0.37 µM): 0.929 ± 0.11
- normalised growth rate inhibition (SKBR3; 1.11 µM): 0.604 ± 0.066
- normalised growth rate inhibition (SKBR3; 3.33 µM): 0.192 ± 0.13
- normalised growth rate inhibition (SKBR3; 10 µM): -0.358 ± 0.23
- normalised growth rate inhibition (MCF7; 0.04 µM): 1.06 ± 0.058
- normalised growth rate inhibition (MCF7; 0.12 µM): 1 ± 0.06
- normalised growth rate inhibition (MCF7; 0.37 µM): 0.883 ± 0.058
- normalised growth rate inhibition (MCF7; 1.11 µM): 0.502 ± 0.14
- normalised growth rate inhibition (MCF7; 3.33 µM): 0.0136 ± 0.12
- normalised growth rate inhibition (MCF7; 10 µM): -0.348 ± 0.14
- normalised growth rate inhibition (HS578T; 0.04 µM): 1.01 ± 0.018
- normalised growth rate inhibition (HS578T; 0.12 µM): 0.998 ± 0.018
- normalised growth rate inhibition (HS578T; 0.37 µM): 0.99 ± 0.021
- normalised growth rate inhibition (HS578T; 1.11 µM): 0.92 ± 0.049
- normalised growth rate inhibition (HS578T; 3.33 µM): 0.723 ± 0.11
- normalised growth rate inhibition (HS578T; 10 µM): -0.218 ± 0.13
- normalised growth rate inhibition (MCF10A; 0.04 µM): 0.996 ± 0.011
- normalised growth rate inhibition (MCF10A; 0.12 µM): 0.979 ± 0.014
- normalised growth rate inhibition (MCF10A; 0.37 µM): 0.974 ± 0.016
- normalised growth rate inhibition (MCF10A; 1.11 µM): 0.967 ± 0.019
- normalised growth rate inhibition (MCF10A; 3.33 µM): 0.957 ± 0.018
- normalised growth rate inhibition (MCF10A; 10 µM): 0.85 ± 0.046

Structure (SMILES): Cc1cc(C(=O)NOCCO)c(Nc2ccc(I)cc2F)n(C)c1=O [AZD-8330]
- normalised growth rate inhibition (MDAMB231; 0.04 µM): 0.0852 ± 0.054
- normalised growth rate inhibition (MDAMB231; 0.12 µM): 0.0627 ± 0.033
- normalised growth rate inhibition (MDAMB231; 0.37 µM): 0.0584 ± 0.026
- normalised growth rate inhibition (MDAMB231; 1.11 µM): 0.0698 ± 0.013
- normalised growth rate inhibition (MDAMB231; 3.33 µM): 0.0774 ± 0.044
- normalised growth rate inhibition (MDAMB231; 10 µM): 0.0933 ± 0.0085
- normalised growth rate inhibition (BT20; 0.04 µM): 0.685 ± 0.018
- normalised growth rate inhibition (BT20; 0.12 µM): 0.741 ± 0.034
- normalised growth rate inhibition (BT20; 0.37 µM): 0.748 ± 0.0083
- normalised growth rate inhibition (BT20; 1.11 µM): 0.739 ± 0.025
- normalised growth rate inhibition (BT20; 3.33 µM): 0.786 ± 0.01
- normalised growth rate inhibition (BT20; 10 µM): 0.803 ± 0.022
- normalised growth rate inhibition (SKBR3; 0.04 µM): 0.497 ± 0.12
- normalised growth rate inhibition (SKBR3; 0.12 µM): 0.64 ± 0.045
- normalised growth rate inhibition (SKBR3; 0.37 µM): 0.708 ± 0.055
- normalised growth rate inhibition (SKBR3; 1.11 µM): 0.76 ± 0.064
- normalised growth rate inhibition (SKBR3; 3.33 µM): 0.778 ± 0.048
- normalised growth rate inhibition (SKBR3; 10 µM): 0.814 ± 0.076
- normalised growth rate inhibition (MCF7; 0.04 µM): 0.331 ± 0.077
- normalised growth rate inhibition (MCF7; 0.12 µM): 0.33 ± 0.043
- normalised growth rate inhibition (MCF7; 0.37 µM): 0.342 ± 0.041
- normalised growth rate inhibition (MCF7; 1.11 µM): 0.41 ± 0.049
- normalised growth rate inhibition (MCF7; 3.33 µM): 0.405 ± 0.029
- normalised growth rate inhibition (MCF7; 10 µM): 0.465 ± 0.025
- normalised growth rate inhibition (HS578T; 0.04 µM): 0.244 ± 0.066
- normalised growth rate inhibition (HS578T; 0.12 µM): 0.212 ± 0.072
- normalised growth rate inhibition (HS578T; 0.37 µM): 0.217 ± 0.11
- normalised growth rate inhibition (HS578T; 1.11 µM): 0.213 ± 0.11
- normalised growth rate inhibition (HS578T; 3.33 µM): 0.217 ± 0.1
- normalised growth rate inhibition (HS578T; 10 µM): 0.197 ± 0.11
- normalised growth rate inhibition (MCF10A; 0.04 µM): 0.0964 ± 0.11
- normalised growth rate inhibition (MCF10A; 0.12 µM): 0.0999 ± 0.1
- normalised growth rate inhibition (MCF10A; 0.37 µM): 0.113 ± 0.08
- normalised growth rate inhibition (MCF10A; 1.11 µM): 0.131 ± 0.068
- normalised growth rate inhibition (MCF10A; 3.33 µM): 0.142 ± 0.075
- normalised growth rate inhibition (MCF10A; 10 µM): 0.143 ± 0.1

Structure (SMILES): NC(=O)Nc1cc(-c2cccc(F)c2)sc1C(=O)N[C@H]1CCCNC1 [AZD-7762]
- normalised growth rate inhibition (MDAMB231; 0.04 µM): 0.7 ± 0.19
- normalised growth rate inhibition (MDAMB231; 0.12 µM): 0.387 ± 0.1
- normalised growth rate inhibition (MDAMB231; 0.37 µM): 0.196 ± 0.21
- normalised growth rate inhibition (MDAMB231; 1.11 µM): -0.0971 ± 0.13
- normalised growth rate inhibition (MDAMB231; 3.33 µM): -0.246 ± 0.14
- normalised growth rate inhibition (MDAMB231; 10 µM): -0.29 ± 0.16
- normalised growth rate inhibition (BT20; 0.04 µM): 1.05 ± 0.054
- normalised growth rate inhibition (BT20; 0.12 µM): 0.874 ± 0.14
- normalised growth rate inhibition (BT20; 0.37 µM): 0.634 ± 0.15
- normalised growth rate inhibition (BT20; 1.11 µM): 0.262 ± 0.15
- normalised growth rate inhibition (BT20; 3.33 µM): -0.0616 ± 0.12
- normalised growth rate inhibition (BT20; 10 µM): -0.418 ± 0.099
- normalised growth rate inhibition (SKBR3; 0.04 µM): 0.0117 ± 0.2
- normalised growth rate inhibition (SKBR3; 0.12 µM): -0.11 ± 0.19
- normalised growth rate inhibition (SKBR3; 0.37 µM): -0.168 ± 0.17
- normalised growth rate inhibition (SKBR3; 1.11 µM): -0.273 ± 0.16
- normalised growth rate inhibition (SKBR3; 3.33 µM): -0.301 ± 0.14
- normalised growth rate inhibition (SKBR3; 10 µM): -0.341 ± 0.13
- normalised growth rate inhibition (MCF7; 0.04 µM): 0.27 ± 0.063
- normalised growth rate inhibition (MCF7; 0.12 µM): 0.176 ± 0.061
- normalised growth rate inhibition (MCF7; 0.37 µM): 0.0985 ± 0.048
- normalised growth rate inhibition (MCF7; 1.11 µM): -0.000407 ± 0.031
- normalised growth rate inhibition (MCF7; 3.33 µM): -0.103 ± 0.015
- normalised growth rate inhibition (MCF7; 10 µM): -0.276 ± 0.042
- normalised growth rate inhibition (HS578T; 0.04 µM): 0.41 ± 0.2
- normalised growth rate inhibition (HS578T; 0.12 µM): 0.0861 ± 0.15
- normalised growth rate inhibition (HS578T; 0.37 µM): -0.0107 ± 0.13
- normalised growth rate inhibition (HS578T; 1.11 µM): -0.108 ± 0.14
- normalised growth rate inhibition (HS578T; 3.33 µM): -0.187 ± 0.13
- normalised growth rate inhibition (HS578T; 10 µM): -0.289 ± 0.13
- normalised growth rate inhibition (MCF10A; 0.04 µM): 0.878 ± 0.077
- normalised growth rate inhibition (MCF10A; 0.12 µM): 0.749 ± 0.11
- normalised growth rate inhibition (MCF10A; 0.37 µM): 0.647 ± 0.1
- normalised growth rate inhibition (MCF10A; 1.11 µM): 0.43 ± 0.097
- normalised growth rate inhibition (MCF10A; 3.33 µM): 0.188 ± 0.052
- normalised growth rate inhibition (MCF10A; 10 µM): -0.177 ± 0.082
